Results on one substance are retold here after article PMC2652713, “Molecular Blocking of CD23 Supports Its Role in the Pathogenesis of Arthritis” (PLoS ONE, 2009).

Where only a bound is given, the exact number is not on record here.

One series concerns CD23. The experiment in a line: CD23 western blot on CD23+ B-cell line extract. The series is classed as binding, human. As to conditions: CD23+ B cell line extract (50 µg protein), blot pre-incubated with p30A 10 µg/ml (methods: 10, 20 and 40 µg/ml, 2 h). Here is the method:
Figure 1 Specific blockade of CD23 reactivity by p30A. Flow cytometry analysis showing the inhibition of (A) anti-CD23-FITC (20 µg/ml) or (B) IgE (10 µg/ml)/anti-IgE-FITC (1 µg/ml) binding to CD23^+ human PBL-derived macrophages (red lines) or following their pre-incubation with p30A peptides (10 µg/ml) (blue lines). (C) CD23 western blot was performed on total protein extract from à CD23^+ B-cell line. The detection with CD23-McAb followed the pre-incubation of the blot with or without p30A (10 µg/ml). Similar protein quantity (50 µg) was used for each western blot condition.
Total cellular proteins were isolated from CD23^+, ADAM B-cell line in cell lysis buffer (10 mM Tris pH 8.0, 150 mM NaCl, 5 mM EDTA, 1% Triton X-100, 0.05% SDS, 10 mM Sodium Fluoride, 1 mM Sodium Orthovanadate, 5 µM Molibdic Acid) and a mixture of protease inhibitors (all from Sigma Aldrich, Saint Quentin Fallavier, France). Protein concentration was determined using the Bradford assay (Bio Rad, Hemel Hempstead, UK). Protein samples (50 µg total protein) were subjected to SDS-PAGE using a 12% resolving gel. […] Immunoreactive bands (CD23 and Bcl2) were detected using the FluorChem 8800 (Alpha Innotech, San Leandro, USA) and semi-quantified by densitometry using AlphaEase FC (Alpha Innotech).

The test system of a further series is human CD23+ macrophages. Briefly: Cell mortality and apoptosis with p30A versus medium alone. Type of series: cell-based.
Series [1] concerns RA patients derived monocytes/macrophages. The experiment in a line: Inflammatory mediator release from rheumatoid arthritis patients' monocytes/macrophages. The series is classed as cell-based, human. Conditions: peripheral and synovial fluid monocytes/macrophages of 7 RA patients; 1 h pre-incubation, CD23 activation; 72 h. From the text:
Figure 5 p30A inhibits the production of CD23-dependent inflammatory mediator release in cells from rheumatoid arthritis (RA) patients. (A) PBL and synovial monocytes/macrophages from RA patients were labeled with anti-CD23-FITC or isotype-matched (Iso) McAb and compared to healthy PBL. Representative fluorescence intensity data obtained from one case, out of 11 distinct patients or healthy individuals. (B) Inhibition of inflammatory mediator release from RA patients derived monocytes/macrophages. PBL monocytes or macrophages collected from synovial liquid were activated through CD23 after 1 h pre-incubation with/without p30A or pCtl. Cell supernatants were collected 72 h later and nitrites, TNF-α and IL-6 were quantified. Values are expressed as mean±s.e.m from 7 patients' cells.
Peripheral blood samples pre-tested for the absence of HIV or hepatitis virus infections were obtained from healthy volunteers (EFS Aquitaine, Bordeaux Blood Bank). We also collected paired peripheral blood and synovial fluid from seven patients, who fulfilled the American College of Rheumatology criteria for RA, during arthritic crisis. Written informed consent was obtained from all the patients. This study was carried out in compliance with the Helsinski Declaration and was approved by the National Ethical Authorities. All seven patients had previously received conventional therapy but none has been given TNF blocker or any other biologic treatment for their condition. […]
Monocytes or macrophages were activated through CD23 pathway: while monocytes/macrophages from RA patients express CD23, monocytes from healthy donors must be pre-activated to express surface CD23 as described. […] Cells supernatants were then analyzed for their nitric oxide content (see below) and for the presence of cytokines: levels of TNF-α and IL-6 were determined in duplicates for each sample by a specific ELISA (R&D, Paris, France) while levels of IL-1β, IL-8 and IL-10 was determined using FlowCytomix Human Th1/Th2 Kit as recommended (Bender Medsystems, Vienna, Austria). […]

Turning to FHENWPS [p30A], the “block of detection of CD23 protein by CD23-McAb” value in the series on CD23 is listed as “block”. Further, the “cell mortality and apoptosis” value in the series on human CD23+ macrophages (in the presence of p30A compared to cells in medium alone, no significant variations) is given as < 5%. Further, the cell toxicity entry with human CD23+ macrophages (monocytes/macrophages) is listed as “without cell toxicity”. Moreover, in series [1], the IL-6 release entry is listed as “reversed inflammatory mediators at the same levels than control cell-supernatants”, the TNF-α release entry is “reversed inflammatory mediators at the same levels than control cell-supernatants” and the “nitric oxide (nitrites) release” value is “reversed inflammatory mediators at the same levels than control cell-supernatants”.
